Measured values taken from publication PMC5908784, “Extracellular loops 2 and 3 of the calcitonin receptor selectively modify agonist binding and efficacy” (Biochemical Pharmacology, 2018).
Residue numbers refer to the chain shown, from its start. Where a SMILES comes first, the peptide text is derived from it. Bridges are numbered along the chain shown (N, C = ends).

Key:
Assay in all cases: IP1 accumulation
Format in all cases: cell-based
Settings in all cases: mean ± S.E.M.; for Emax: IP1 maximal response, SEM
hCTR Y284A = target: T1, hCTR Y284A (Homo sapiens, UniProt P30988, Y284A)
T1 construct: expressed in transfected cells
T1 sequence (P30988 25-474 Y284A): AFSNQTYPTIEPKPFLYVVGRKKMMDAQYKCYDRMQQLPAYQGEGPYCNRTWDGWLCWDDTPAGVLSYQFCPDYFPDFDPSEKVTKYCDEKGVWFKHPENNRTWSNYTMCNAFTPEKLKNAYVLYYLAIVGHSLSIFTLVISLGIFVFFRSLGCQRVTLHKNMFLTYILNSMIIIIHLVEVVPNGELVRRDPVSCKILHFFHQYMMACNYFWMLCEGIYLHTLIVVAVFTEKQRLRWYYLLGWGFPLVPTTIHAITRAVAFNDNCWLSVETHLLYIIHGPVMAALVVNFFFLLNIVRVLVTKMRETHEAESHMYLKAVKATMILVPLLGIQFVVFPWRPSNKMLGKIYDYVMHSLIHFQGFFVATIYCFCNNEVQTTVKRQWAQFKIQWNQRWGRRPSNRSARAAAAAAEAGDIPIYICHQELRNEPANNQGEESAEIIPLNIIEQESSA
In short: (§1)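 Concentration-response curves were fitted to a 3-parameter logistic model to estimate EC50 and Emax. Cells had been exposed to ligand for 60 min with LiCl, and lysate IP1 determined by HTRF, with normalization to 100 μM ATP.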

hCTR P360A = target: T2, hCTR P360A (Homo sapiens, UniProt P30988, P360A)
T2 construct: expressed in transfected cells
T2 sequence (P30988 25-474 P360A): T1 sequence (P30988 25-474 Y284A) with A260Y, P336A
In short: as §1

hCTR D373A = target: T3, hCTR D373A (Homo sapiens, UniProt P30988, D373A)
T3 construct: c-Myc (N); expressed in transfected cells
T3 sequence (P30988 25-474 D373A): T1 sequence (P30988 25-474 Y284A) with A260Y, D349A
In short: as §1

hCTR N286A = target: T4, hCTR N286A (Homo sapiens, UniProt P30988, N286A)
T4 construct: c-Myc (N); expressed in transfected cells
T4 sequence (P30988 25-474 N286A): T1 sequence (P30988 25-474 Y284A) with A260Y, N262A
In short: as §1

hCTR S292A = target: T5, hCTR S292A (Homo sapiens, UniProt P30988, S292A)
T5 construct: expressed in transfected cells
T5 sequence (P30988 25-474 S292A): T1 sequence (P30988 25-474 Y284A) with A260Y, S268A
In short: as §1

[1] = IP1, CV1-FlpIn cells, 60 min, LiCl

Compound | Emax (hCTR Y284A) [%] | Emax (hCTR P360A) [%] | Emax (hCTR D373A) [%] | Emax (hCTR N286A) [%] | Emax (hCTR S292A) [%] | EC50 (hCTR Y284A; [1]) [nM] | EC50 (hCTR P360A; [1]) [nM] | EC50 (hCTR D373A; [1]) [nM] | EC50 (hCTR N286A; [1]) [nM] | EC50 (hCTR S292A; [1]) [nM]
CC(C)C[C@H](NC(=O)[C@H](CCCCN)NC(=O)CNC(=O)[C@H](CC(C)C)NC(=O)[C@@H](NC(=O)[C@@H]1CSSC[C@H](N)C(=O)N[C@@H](CO)C(=O)N[C@@H](CC(N)=O)C(=O)N[C@@H](CC(C)C)C(=O)N[C@@H](CO)C(=O)N[C@@H]([C@@H](C)O)C(=O)N1)C(C)C)C(=O)N[C@@H](CO)C(=O)N[C@@H](CCC(N)=O)C(=O)N[C@@H](CCC(=O)O)C(=O)N[C@@H](CC(C)C)C(=O)N[C@@H](Cc1c[nH]cn1)C(=O)N[C@@H](CCCCN)C(=O)N[C@@H](CC(C)C)C(=O)N[C@@H](CCC(N)=O)C(=O)N[C@H](C(=O)N[C@@H](Cc1ccc(O)cc1)C(=O)N1CCC[C@H]1C(=O)N[C@@H](CCCNC(=N)N)C(=O)N[C@H](C(=O)N[C@@H](CC(N)=O)C(=O)N[C@H](C(=O)NCC(=O)N[C@@H](CO)C(=O)NCC(=O)N[C@H](C(=O)N1CCC[C@H]1C(N)=O)[C@@H](C)O)[C@@H](C)O)[C@@H](C)O)[C@@H](C)O [sCT] | 118 ± 7 | 144 ± 5 | 78 ± 6 | 59 ± 5 | 91 ± 6 |  |  |  |  | 
CC[C@H](C)[C@H](NC(=O)[C@H](C)NC(=O)[C@@H](NC(=O)[C@H](CCC(N)=O)NC(=O)[C@@H]1CCCN1C(=O)[C@H](Cc1ccccc1)NC(=O)[C@@H](NC(=O)[C@H](Cc1c[nH]cn1)NC(=O)[C@H](Cc1ccccc1)NC(=O)[C@H](CCCCN)NC(=O)[C@H](CC(N)=O)NC(=O)[C@H](Cc1ccccc1)NC(=O)[C@H](CC(=O)O)NC(=O)[C@H](CCC(N)=O)NC(=O)[C@@H](NC(=O)[C@H](Cc1ccc(O)cc1)NC(=O)[C@@H](NC(=O)CNC(=O)[C@H](CC(C)C)NC(=O)[C@H](CCSC)NC(=O)[C@@H]1CSSC[C@H](N)C(=O)NCC(=O)N[C@@H](CC(N)=O)C(=O)N[C@@H](CC(C)C)C(=O)N[C@@H](CO)C(=O)N[C@@H]([C@@H](C)O)C(=O)N1)[C@@H](C)O)[C@@H](C)O)[C@@H](C)O)[C@@H](C)O)C(=O)NCC(=O)N[C@H](C(=O)NCC(=O)N[C@@H](C)C(=O)N1CCC[C@H]1C(N)=O)C(C)C [hCT] | 81 ± 12 | 95 ± 8 | 102 ± 10 | 40 ± 3 | 70 ± 6 |  |  |  |  | 
CSCC[C@H](NC(=O)CNC(=O)[C@H](CO)NC(=O)[C@H](Cc1ccccc1)NC(=O)[C@H](CCCNC(=N)N)NC(=O)[C@H](Cc1c[nH]cn1)NC(=O)[C@H](Cc1ccccc1)NC(=O)[C@H](CC(N)=O)NC(=O)[C@H](CC(N)=O)NC(=O)[C@H](CC(C)C)NC(=O)[C@H](CC(N)=O)NC(=O)[C@H](CCCNC(=N)N)NC(=O)[C@H](Cc1c[nH]c2ccccc12)NC(=O)[C@H](Cc1ccc(O)cc1)NC(=O)[C@H](C)NC(=O)[C@H](CO)NC(=O)[C@H](CC(C)C)NC(=O)[C@@H](NC(=O)[C@@H]1CSSC[C@H](N)C(=O)N[C@@H](CO)C(=O)N[C@@H](CC(N)=O)C(=O)N[C@@H](CC(C)C)C(=O)N[C@@H](CO)C(=O)N[C@@H]([C@@H](C)O)C(=O)N1)C(C)C)C(=O)NCC(=O)N[C@@H](Cc1ccccc1)C(=O)NCC(=O)N1CCC[C@H]1C(=O)N[C@@H](CCC(=O)O)C(=O)N[C@H](C(=O)N1CCC[C@H]1C(N)=O)[C@@H](C)O [pCT] (H-CSNLSTCVLSAYWRNLNNFHRFSGMGFGPETP-NH2; disulfide 1-7) | 94 ± 6 | 107 ± 12 | 46 ± 3 | 76 ± 6 | 92 ± 7 | 1.15 | 85.1 | 14.8 | 0.562 | 4.27
